Target: human HPK1 (MAP4K1) (Homo sapiens (Human), UniProt Q92918)
Assay: HPK1 IC50 Assay (TR-FRET peptide phosphorylation)
Assay type: biochemical
How it was run: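 Pre-activated, dually phosphorylated baculovirus-expressed HPK1 kinase domain (0.15 nM) preincubated 15 min with compound, then reacted 3 h at 25° C with 10 μM ATP and 1 μM STK S1 peptide in BES pH 7.0 buffer. Phosphopeptide read by TR-FRET (665/620 nm); four-parameter fit, geometric-mean IC50.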

[1] = recombinant HPK1 kinase domain 0.15 nM, 10 μM ATP, 1 μM STK S1 peptide, geometric mean of multiple experiments
[2] = 0.15 nM HPK1, 10 μM ATP, 1 μM STK S1 peptide substrate, geometric mean

Sequence of human HPK1 (MAP4K1) (Q92918 17-274): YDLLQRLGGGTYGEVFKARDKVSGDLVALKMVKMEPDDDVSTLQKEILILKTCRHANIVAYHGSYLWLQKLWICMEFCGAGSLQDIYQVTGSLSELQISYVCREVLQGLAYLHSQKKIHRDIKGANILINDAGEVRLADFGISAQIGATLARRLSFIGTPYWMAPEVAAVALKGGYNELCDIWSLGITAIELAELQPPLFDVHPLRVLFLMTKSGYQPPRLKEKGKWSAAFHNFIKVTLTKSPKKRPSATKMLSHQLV

| IC50 [1] [nM] | IC50 [2] [nM] | Structure (SMILES) |
| --- | --- | --- |
| 0.1 | – | Cc1c(C(=O)NC2(C(F)F)CC2)cc(Nc2nc(-c3cnc4c(c3)N([C@H]3C[C@@](C)(N5CCCCC5)C3)CC4(C)C)cc3ncn(C(C)C)c23)c(F)c1F [Example 214, N-(1-(Difluoromethyl)cyclopropyl)-5-((6-(3,3-dimethyl-1-((1s,3s)-3-methyl-3-(piperidin-1-yl)cyclobutyl)-2,3-dihydro-1H-pyrrolo[3,2-b]pyridin-6-yl)-3-isopropyl-3H-imidazo[4,5-c]pyridin-4-yl)amino)-3,4-difluoro-2-methylbenzamide] |
| 0.1 | – | CC[C@H](C)n1cnc2cc(-c3ccc4c(c3)N([C@H]3C[C@@H](N5CCCCC5)C3)C(=O)C43CCN(C(=O)OC)CC3)nc(Nc3ccc(C)c(C(=O)NC)c3)c21 [Example 169] |
| 0.08 | – | CC(C)n1cnc2cc(-c3cnc4c(c3)N([C@H]3C[C@@](C)(N5CCCCC5)C3)C(=O)C43CCOCC3)nc(Nc3cc(C(=O)NC4(C(F)F)CC4)c(Cl)c(F)c3F)c21 [Example 210, 2-Chloro-N-(1-(difluoromethyl)cyclopropyl)-3,4-difluoro-5-((3-isopropyl-6-(1′-((1s,3s)-3-methyl-3-(piperidin-1-yl)cyclobutyl)-2′-oxo-1′,2,2′,3,5,6-hexahydrospiro[pyran-4,3′-pyrrolo[3,2-b]pyridin]-6′-yl)-3H-imidazo[4,5-c]pyridin-4-yl)amino)benzamide] |
| 0.06 | – | CNC(=O)c1cc(Nc2nc(-c3ccc4c(c3)N([C@H]3C[C@@H](N5CCCCC5)C3)C(=O)C43CCN(C(=O)C45CC(F)(C4)C5)CC3)cc3ncn(C4CC4)c23)ccc1C [Example 154] |
| 0.1 | – | CCC1(CC)C(=O)N([C@H]2C[C@@H](N3CCCCC3)C2)c2cc(-c3cc4ncn(C(C)C)c4c(Nc4ccc(C)c(C(=O)NC)c4)n3)ccc21 [Example 45] |
| 0.02 | – | CC(C)n1cnc2cc(-c3ccc4c(c3)N([C@H]3C[C@@](C)(N5CCCCC5)C3)C(=O)C4(C)C)nc(Nc3cc(C(=O)NC4(C(F)F)CC4)ccc3F)c21 [Example 238, N-(1-(Difluoromethyl)cyclopropyl)-3-((6-(3,3-dimethyl-1-((1s,3s)-3-methyl-3-(piperidin-1-yl)cyclobutyl)-2-oxoindolin-6-yl)-3-isopropyl-3H-imidazo[4,5-c]pyridin-4-yl)amino)-4-fluorobenzamide] |
| – | 0.08 | CC(C)n1cnc2cc(-c3cc4c(nc3F)C(C)(C)C(=O)N4[C@H]3C[C@@](C)(N4CCCCC4)C3)nc(Nc3cc(C(=O)NC4(C(F)F)CC4)c(Cl)c(F)c3F)c21 [Example 291, 2-chloro-N-(1-(difluoromethyl)cyclopropyl)-3,4-difluoro-5-((6-(5-fluoro-3,3-dimethyl-1-((1s,3s)-3-methyl-3-(piperidin-1-yl)cyclobutyl)-2-oxo-2,3-dihydro-1H-pyrrolo[3,2-b]pyridin-6-yl)-3-isopropyl-3H-imidazo[4,5-c]pyridin-4-yl)amino)benzamide] |
| 0.3 | – | CNC(=O)c1cc(Nc2nc(-c3cnc4c(c3)N([C@H]3C[C@@H](N5CCCCC5)C3)C(=O)C4(C)C)cc3ncn(C(C)C)c23)c(F)cc1C [Example 111] |
| 0.07 | – | CNC(=O)c1cc(Nc2nc(-c3ccc4c(c3)N([C@H]3C[C@@H](N5CCCC(C)(C)C5)C3)C(=O)C4(C)C)cc3ncn(C4CC4)c23)ccc1C [Example 38] |
| 0.2 | – | COCCNC(=O)c1cc(Nc2nc(-c3ccc4c(c3)N([C@H]3C[C@@H](N5CCCCC5)C3)C(=O)C43CCN(C(C)=O)CC3)cc3ncn(C(C)C)c23)ccc1C [Example 131] |
| 0.07 | – | CNC(=O)c1cc(Nc2nc(-c3ccc4c(c3)N([C@H]3C[C@@H](N5CCCCC5)C3)C(=O)C4(C)C)cc3ncn(C(C)C)c23)ccc1C(F)(F)F [Example 141] |
| – | 0.2 | CC(C)n1cnc2cc(-c3cnc4c(c3)N([C@]3(C)C[C@H](N5CCCCC5)C3)C(=O)C4(C)C)nc(Nc3cc(C(=O)NC4(C(F)F)CC4)c(Cl)c(F)c3F)c21 [Example 297, 2-Chloro-N-(1-(difluoromethyl)cyclopropyl)-5-((6-(3,3-dimethyl-1-((1s,3s)-1-methyl-3-(piperidin-1-yl)cyclobutyl)-2-oxo-2,3-dihydro-1H-pyrrol[3,2-b]pyridin-6-yl)-3-isopropyl-3H-imidazo[4,5-c]pyridin-4-yl)amino)-3,4-difluorobenzamide] |
| 0.05 | – | Cc1ccc(Nc2nc(-c3ccc4c(c3)N([C@H]3C[C@@](C)(N5CCCCC5)C3)C(=O)C4(C)C)cc3ncn(C4CC4)c23)cc1C(N)=O [Example 183, 5-((3-cyclopropyl-6-(3,3-dimethyl-1-((1s,3s)-3-methyl-3-(piperidin-1-yl)cyclobutyl)-2-oxoindolin-6-yl)-3H-imidazo[4,5-c]pyridin-4-yl)amino)-2-methylbenzamide] |
| 0.2 | – | CCn1cnc2cc(-c3ccc4c(c3)N([C@H]3C[C@@H](N5CCCCC5)C3)C(=O)C4(C)C)nc(Nc3cc(C(=O)NC)c(C)cc3F)c21 [Example 101] |
| 0.2 | – | Cc1c(C(=O)NC2(C(F)F)CC2)cc(Nc2nc(-c3cnc4c(c3)N([C@H]3C[C@@](C)(N5C[C@H]6COC[C@H]6C5)C3)C(=O)C4(C)C)cc3ncn(C(C)C)c23)c(F)c1F [Example 189, N-(1-(Difluoromethyl)cyclopropyl)-5-((6-(3,3-dimethyl-1-((1S,3s)-3-methyl-3-((3 aR,6aS)-tetrahydro-1H-furo[3,4-c]pyrrol-5(3H)-yl)cyclobutyl)-2-oxo-2,3-dihydro-1H-pyrrolo[3,2-b]pyridin-6-yl)-3-isopropyl-3H-imidazo[4,5-c]pyridin-4-yl)amino)-3,4-difluoro-2-methylbenzamide] |
| 0.07 | – | Cc1ccc(Nc2nc(-c3ccc4c(c3)N([C@H]3C[C@@H](N5CCCCC5)C3)C(=O)C43CCOCC3)cc3ncn(C4CC4)c23)cc1C(N)=O [Example 126] |
| 0.08 | – | CCCNC(=O)c1cc(Nc2nc(-c3ccc4c(c3)N([C@H]3C[C@@H](N5CCCCC5)C3)C(=O)C4(C)C)cc3ncn(C(C)C)c23)ccc1C [Example 24] |
| 0.08 | – | CC(C)n1cnc2cc(-c3cnc4c(c3)N([C@H]3C[C@@](C)(N5CCC6CC6C5)C3)C(=O)C4(C)C)nc(Nc3cc(C(=O)NC4(C(F)F)CC4)c(Cl)c(F)c3F)c21 (stereo partly drawn) [Example 225, 5-((6-(1-((1s,3s)-3-(3-Azabicyclo[4.1.0]heptan-3-yl)-3-methylcyclobutyl)-3,3-dimethyl-2-oxo-2,3-dihydro-1H-pyrrolo[3,2-b]pyridin-6-yl)-3-isopropyl-3H-imidazo[4,5-c]pyridin-4-yl)amino)-2-chloro-N-(1-(difluoromethyl)cyclopropyl)-3,4-difluorobenzamide] |
| 0.06 | – | CC(C)n1cnc2cc(-c3cnc4c(c3)N([C@H]3C[C@@](C)(N5CCCCC5)C3)C(=O)C4(C)C)nc(Nc3cc(C(=O)NC4CC4)c(Cl)c(F)c3F)c21 [Example 265, 2-chloro-N-cyclopropyl-5-((6-(3,3-dimethyl-1-((1s,3s)-3-methyl-3-(piperidin-1-yl)cyclobutyl)-2-oxo-2,3-dihydro-1H-pyrrolo[3,2-b]pyridin-6-yl)-3-isopropyl-3H-imidazo[4,5-c]pyridin-4-yl)amino)-3,4-difluorobenzamide] |

| Structure (SMILES) | IC50 [1] [nM] | IC50 [2] [nM] |
| --- | --- | --- |
| Cc1cc(F)c(Nc2nc(-c3ccc4c(c3)N([C@H]3C[C@@H](N5CCC(C)(C)C5)C3)C(=O)C43CCN(C4COC4)CC3)cc3ncn(C(C)C)c23)cc1C(=O)NC(C)C [Example 100] | 0.3 | – |
| CC(=O)N1CCC2(CC1)C(=O)N([C@H]1C[C@@H](N3C4CCC3COC4)C1)c1cc(-c3cc4ncn(C(C)C)c4c(Nc4cc(C(=O)NC(C)C)c(C)cc4F)n3)ccc12 [Example 77] | 0.06 | – |
